Among the data in patent publication US20160244436A1, “NOVEL FUNCTIONALIZED 5-(PHENOXYMETHYL)-1,3-DIOXANE ANALOGS EXHIBITING CYTOCHROME P450 INHIBITION AND THEIR METHOD OF USE” (CORTENDO AB (PUBL), priority 2013, published 2016) are IC50 values, retold here.

Common to all, as to format: cell-based
The target of one assay is T1, recombinant CYP-11 (Homo sapiens, UniProt P15538).
T1 construct: expressed in transfected cells; host or cells: AD293
T1 sequence (P15538 25-503): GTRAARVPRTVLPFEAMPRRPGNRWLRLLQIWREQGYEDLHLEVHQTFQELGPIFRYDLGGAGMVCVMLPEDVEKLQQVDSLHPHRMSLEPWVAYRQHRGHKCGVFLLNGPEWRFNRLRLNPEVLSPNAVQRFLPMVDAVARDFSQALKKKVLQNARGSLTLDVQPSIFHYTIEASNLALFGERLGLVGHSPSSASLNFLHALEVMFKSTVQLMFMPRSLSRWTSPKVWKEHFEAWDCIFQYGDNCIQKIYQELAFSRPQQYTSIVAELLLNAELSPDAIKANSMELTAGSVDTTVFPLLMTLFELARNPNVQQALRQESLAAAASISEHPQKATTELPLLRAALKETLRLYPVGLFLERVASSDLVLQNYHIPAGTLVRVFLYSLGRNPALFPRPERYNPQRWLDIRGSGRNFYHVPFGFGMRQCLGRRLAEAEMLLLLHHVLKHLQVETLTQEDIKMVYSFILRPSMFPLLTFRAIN
Briefly: Cyp11 assay: AD293 cells over-expressing recombinant CYP-11, cortisol formation from 11-deoxycortisol by LC/MS. The method, then: Cyp11 assay protocol: AD293 cells that stably over-express recombinant CYP-11 were seeded in 96 well plates coated with poly D-lysine (15,000 cell per well) and incubated at 37° C. for 24 hours in Dulbecco's Modified Eagle Medium (DMEM) with Fetal Bovine Serum (FBS) that is stripped of hormones by charcoal treatment. The media is then removed, the cells are washed once with Phosphate buffer saline solution, and 50 μL Dulbecco's Modified Eagle Medium (DMEM) with Fetal Bovine Serum (FBS) that is stripped of hormones by charcoal treatment is added. Compounds of the disclosure are then added to the wells in eight concentration spanning 10 μM to 4.5 nM, and the plates are incubated for an additional 60 minutes at 37° C. 11-deoxycortisol is then added (2.0 μM) and the plates are incubated for an additional 12 hours at 37° C. After incubation, 50 uL of the supernatant (medium) is transferred into a fresh plate and 150 uL of an acetonitrile solution containing 200 ng/ml of Telmisartan is added. The sample is mixed and then placed in a centrifuge at 2000 rpm for 5 minutes. 100 uL of the supernatant is transferred into a fresh 96 well deep well plate, 100 uL of 1:1 methanol:water was added, the solution was mixed and then analyzed by LC/MS for the presence of cortisol using an Agilent 1200 RRLC/ABSCIEX API4000 LC-MS or Shimadzu Prominance/ABSCIEX API4000 LC-MS to determine IC5os of the compounds of the disclosure.

For a further assay, the target named is T2, recombinant CYP-21 (Homo sapiens, UniProt P08686).
T2 construct: expressed in transfected cells; host or cells: AD293
T2 sequence (P08686 1-495): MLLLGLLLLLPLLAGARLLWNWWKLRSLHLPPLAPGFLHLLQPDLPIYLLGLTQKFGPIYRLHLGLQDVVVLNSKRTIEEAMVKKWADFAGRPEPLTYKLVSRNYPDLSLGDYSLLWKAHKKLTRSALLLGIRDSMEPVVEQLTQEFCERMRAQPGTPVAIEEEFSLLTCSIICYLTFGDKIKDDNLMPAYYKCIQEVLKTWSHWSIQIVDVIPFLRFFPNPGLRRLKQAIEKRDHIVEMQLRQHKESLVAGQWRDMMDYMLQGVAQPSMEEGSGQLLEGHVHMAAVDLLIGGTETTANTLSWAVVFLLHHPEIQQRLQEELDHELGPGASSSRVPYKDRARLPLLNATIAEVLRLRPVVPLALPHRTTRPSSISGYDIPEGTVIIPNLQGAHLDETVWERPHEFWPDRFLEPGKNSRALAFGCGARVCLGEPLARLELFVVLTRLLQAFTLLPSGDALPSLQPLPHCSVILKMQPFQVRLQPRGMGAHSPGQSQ
The assay can be described thus: Cyp21 assay: AD293 cells over-expressing recombinant CYP-21, 11-deoxycortisol formation from 17α-OH Progesterone by LC/MS. The method, then:
Cyp21 assay protocol: AD293 cells that stably over-express recombinant CYP-21 were seeded in 96 well plates coated with poly D-lysine (10,000 cell per well) and incubated at 37° C. for 24 hours in Dulbecco's Modified Eagle Medium (DMEM) with Fetal Bovine Serum (FBS) that is stripped of hormones by charcoal treatment. The media is then removed, the cells are washed once with Phosphate buffer saline solution, and 50 μL Dulbecco's Modified Eagle Medium (DMEM) with Fetal Bovine Serum (FBS) that is stripped of hormones by charcoal treatment is added. Compounds of the disclosure are then added to the wells in eight concentration spanning 10 μM to 4.5 nM, and the plates are incubated for an additional 60 minutes at 37° C. 17α-OH Progesterone is then added (1.0 μM) and the plates are incubated for an additional 45 minutes at 37° C. After incubation, 50 uL of the supernatant (medium) is transferred into a fresh plate and 150 uL of an acetonitrile solution containing 200 ng/ml of Telmisartan is added. The sample is mixed and then placed in a centrifuge at 2000 rpm for 5 minutes. 100 uL of the supernatant is transferred into a fresh 96 well deep well plate, 100 uL of 1:1 methanol:water was added, the solution was mixed and then analyzed by LC/MS for the presence of 11-deoxycortisol using an Agilent 1200 RRLC/ABSCIEX API4000 LC-MS or Shimadzu Prominance/ABSCIEX API4000 LC-MS to determine IC5os of the compounds of the disclosure.

The next assay has as its target T3, recombinant CYP-17 (Homo sapiens, UniProt P05093).
T3 construct: expressed in transfected cells; host or cells: AD293
T3 sequence (P05093 1-508): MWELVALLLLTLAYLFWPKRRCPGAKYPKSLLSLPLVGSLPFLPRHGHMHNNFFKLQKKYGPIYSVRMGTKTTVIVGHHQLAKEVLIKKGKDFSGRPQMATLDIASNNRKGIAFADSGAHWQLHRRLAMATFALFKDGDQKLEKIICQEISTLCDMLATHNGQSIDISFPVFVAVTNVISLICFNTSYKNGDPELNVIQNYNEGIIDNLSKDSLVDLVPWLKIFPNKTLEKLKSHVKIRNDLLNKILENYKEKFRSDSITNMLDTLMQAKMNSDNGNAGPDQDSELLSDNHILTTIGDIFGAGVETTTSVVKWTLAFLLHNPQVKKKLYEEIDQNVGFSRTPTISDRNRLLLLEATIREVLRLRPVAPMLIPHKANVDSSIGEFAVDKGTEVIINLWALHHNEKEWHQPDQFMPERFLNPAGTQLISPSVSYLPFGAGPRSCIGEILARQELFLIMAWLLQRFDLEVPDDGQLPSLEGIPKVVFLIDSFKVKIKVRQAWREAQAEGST
The assay can be described thus: Cyp17 assay: AD293 cells over-expressing recombinant CYP-17, 3H-acetic acid release from [21-3H] 17α-hydroxyl-Pregnenolone. The method, then: Cyp17 assay protocol: AD293 cells that stably over-express recombinant CYP-17 were seeded in 96 well plates coated with poly D-lysine (15,000 cell per well) and incubated at 37° C. for 24 hours in Dulbecco's Modified Eagle Medium (DMEM) with Fetal Bovine Serum (FBS) that is stripped of hormones by charcoal treatment. The media is then removed, the cells are washed once with Phosphate buffer saline solution, and 50 μL Dulbecco's Modified Eagle Medium (DMEM) with Fetal Bovine Serum (FBS) that is stripped of hormones by charcoal treatment is added. Compounds of the disclosure are then added to the wells in eight concentration spanning 10 μM to 4.5 nM, and the plates are incubated for an additional 60 minutes at 37° C. [21-^3H] 17α-hydroxyl-Pregnenolone is then added (50 nCi per well, 31.25 nM) and the plates are incubated for an additional 4 hours at 37° C. The media is then collected, 200 μL, of chloroform is added, and the mixture is shaken for 1 hour. The aqueous layer is then separated and analyzed for the presence of ^3H-acetic acid using a Perkin Elmer Topcount NXT to determine IC50s of the compounds of the disclosure.

One may read the IC50 as the concentration at which inhibition is half-maximal. For `CC(=O)N1CCN(c2ccc(CO[C@H]3CO[C@](Cn4ccnc4)(c4ccccc4Cl)OC3)cc2)CC1` [Example 500003], the IC50 at recombinant CYP-11 stood at 521 nM; on recombinant CYP-21, 1480 nM; at recombinant CYP-17 it was 146 nM.
For `CC(=O)N1CCN(c2ccc(CO[C@H]3CO[C@@](Cn4ccnc4)(c4ccccc4Cl)OC3)cc2)CC1` [Example 500004], on recombinant CYP-17, the IC50 is not below 10000 nM.
On to `Clc1ccccc1[C@]1(Cn2ccnc2)OC[C@@H](OCc2ccc(N3CCOCC3)cc2)CO1` [Example 500005], for which the IC50 at recombinant CYP-21 is 960 nM; at recombinant CYP-17 it was 260 nM.
As for `Clc1ccccc1[C@]1(Cn2ccnc2)OC[C@H](OCc2ccc(N3CCOCC3)cc2)CO1` [Example 500006], the IC50 at recombinant CYP-21 turned out to be 4760 nM; on recombinant CYP-17 it was 8000 nM.
`CS(=O)(=O)N1CCN(c2ccc(CO[C@H]3CO[C@](Cn4ccnc4)(c4ccccc4Cl)OC3)cc2)CC1` [Example 500012]: the IC50 worked out at 100 nM on recombinant CYP-11, 1520 nM on recombinant CYP-21 and 12 nM at recombinant CYP-17.
As to `CS(=O)(=O)N1CCN(c2ccc(CO[C@H]3CO[C@@](Cn4ccnc4)(c4ccccc4Cl)OC3)cc2)CC1` [Example 500013], the results for the IC50 at recombinant CYP-21 and at recombinant CYP-17 were 2500 nM and 1500 nM, respectively.
As for `CC(=O)N1CCN(c2ccc(CO[C@H]3CO[C@](Cn4ccnc4)(c4ccc(Cl)cc4Cl)OC3)cc2)CC1` [Example 500015], the 50% inhibitory concentration (IC50) on recombinant CYP-11 turned out to be 12 nM; at recombinant CYP-21, 208 nM; on recombinant CYP-17 it was 8 nM.
As for `N#Cc1cccc(S(=O)(=O)N2CCN(c3ccc(CO[C@H]4CO[C@](Cn5ccnc5)(c5ccc(Cl)cc5Cl)OC4)cc3)CC2)c1` [Example 500016], the figures for the IC50 on recombinant CYP-11, on recombinant CYP-21 and at recombinant CYP-17 were 37 nM, 415 nM and 75 nM, respectively.
For the molecule `O=S(=O)(CCCCl)N1CCN(c2ccc(CO[C@H]3CO[C@](Cn4ccnc4)(c4ccc(Cl)cc4Cl)OC3)cc2)CC1` [Example 500017], the results for the IC50 at recombinant CYP-11, on recombinant CYP-21 and on recombinant CYP-17 were 27 nM, 1100 nM and 106 nM, respectively.
Turning to `O=S(=O)(C1CC1)N1CCN(c2ccc(CO[C@H]3CO[C@](Cn4ccnc4)(c4ccc(Cl)cc4Cl)OC3)cc2)CC1` [Example 500018], the IC50 at recombinant CYP-11 came to 6 nM; at recombinant CYP-21 it was 262 nM; on recombinant CYP-17, 11 nM.
`CC(=O)N1CCN(c2ccc(CO[C@H]3CO[C@@](Cn4ccnc4)(c4ccc(Cl)cc4Cl)OC3)cc2)CC1` [Example 500019]: the figures for the IC50 on recombinant CYP-11 and on recombinant CYP-17 were 12 nM and 1100 nM, respectively.
As to `CC(C)S(=O)(=O)N1CCN(c2ccc(CO[C@H]3CO[C@](Cn4ccnc4)(c4ccc(Cl)cc4Cl)OC3)cc2)CC1` [Example 500020], the IC50 was found to be 25 nM on recombinant CYP-11, 110 nM at recombinant CYP-21 and 11 nM at recombinant CYP-17.
As to `CCS(=O)(=O)N1CCN(c2ccc(CO[C@H]3CO[C@](Cn4ccnc4)(c4ccc(Cl)cc4Cl)OC3)cc2)CC1` [Example 500021], the IC50 is 200 nM on recombinant CYP-11, 130 nM at recombinant CYP-21 and 9 nM at recombinant CYP-17.
In the case of `O=S(=O)(c1cccc(OC(F)(F)F)c1)N1CCN(c2ccc(CO[C@H]3CO[C@](Cn4ccnc4)(c4ccc(Cl)cc4Cl)OC3)cc2)CC1` [Example 500022], the IC50 on recombinant CYP-11 is 13 nM; at recombinant CYP-21 it was 170 nM; on recombinant CYP-17, 101 nM.
`O=S(=O)(c1c[nH]cn1)N1CCN(c2ccc(CO[C@H]3CO[C@](Cn4ccnc4)(c4ccc(Cl)cc4Cl)OC3)cc2)CC1` [Example 500023]: the IC50 on recombinant CYP-11 was found to be 14 nM; on recombinant CYP-21, 426 nM; at recombinant CYP-17, 67 nM.
`Clc1ccc([C@]2(Cn3ccnc3)OC[C@@H](OCc3ccc(-c4ccncc4)cc3)CO2)c(Cl)c1` [Example 500024]: the IC50 at recombinant CYP-11 stood at 23 nM; at recombinant CYP-21 it was 68 nM; at recombinant CYP-17 it was 33 nM.
Regarding `O=S(=O)(c1cccnc1)N1CCN(c2ccc(CO[C@H]3CO[C@](Cn4ccnc4)(c4ccc(Cl)cc4Cl)OC3)cc2)CC1` [Example 500025], the IC50 at recombinant CYP-11 turned out to be 12 nM; at recombinant CYP-21 it was 273 nM; on recombinant CYP-17, 13 nM.
Regarding `COCCOC(=O)N1CCN(c2ccc(CO[C@H]3CO[C@@](Cn4ccnc4)(c4ccccc4Cl)OC3)cc2)CC1` [Example 510012], the values for the IC50 on recombinant CYP-21 and at recombinant CYP-17 were 800 nM and 2500 nM, respectively.
For the molecule `CN(C)C(=O)N1CCN(c2ccc(CO[C@H]3CO[C@](Cn4ccnc4)(c4ccccc4Cl)OC3)cc2)CC1` [Example 510013], the IC50 on recombinant CYP-11 worked out at 70 nM; on recombinant CYP-21, 800 nM; on recombinant CYP-17, 27 nM.
`COCCOC(=O)N1CCN(c2ccc(CO[C@H]3CO[C@](Cn4ccnc4)(c4ccccc4Cl)OC3)cc2)CC1` [Example 510014]: the IC50 was 140 nM at recombinant CYP-11, 570 nM on recombinant CYP-21 and 20 nM at recombinant CYP-17.
For `CCOC(=O)CNC(=O)N1CCN(c2ccc(CO[C@H]3CO[C@@](Cn4ccnc4)(c4ccccc4Cl)OC3)cc2)CC1` [Example 510019], the IC50 on recombinant CYP-11 was 5800 nM; on recombinant CYP-17, not below 10000 nM.
